Results reported in the supplement of paper PMC7287046.

Experiments:
Settings in all cases: exposure time: 72 h
AM-38 [1] = assay: HSA synergy score (Combenefit); higher = more synergy
Protocol: (§1)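 The same 6x6 dose matrices of drug pairs on glioma cell lines (72 h, CellTiter-Glo viability normalised to DMSO, triplicate) were scored with Combenefit. The Loewe, Bliss and HSA synergy scores are given; paper thresholds are Loewe 7.8 and Bliss 2.5.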

KNS-42 [2] = assay: as above
Protocol: as §1

SF268 [3] = assay: as above
Protocol: as §1

SF539 [4] = assay: as above
Protocol: as §1

SNB75 [5] = assay: as above
Protocol: as §1

T98G [6] = assay: as above
Protocol: as §1

U118 [7] = assay: as above
Protocol: as §1

U251 [8] = assay: as above
Protocol: as §1

U87 [9] = assay: as above
Protocol: as §1

AM38 = assay: Chou-Talalay combination index (dimensionless); higher = less synergy (more antagonism)
Protocol: (§2)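 Glioma cell lines were treated for 72 h with a 6x6 matrix of two drugs, each in twofold dilutions with the top dose at the single-drug IC50. Viability was read by CellTiter-Glo and normalised to DMSO controls, in triplicate. The Chou-Talalay combination index was computed by the median effect principle; CI < 0.8 means synergy.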

KNS42 = assay: as above
Protocol: as §2

SF268 [10] = assay: as above
Protocol: as §2

SF539 [11] = assay: as above
Protocol: as §2

SNB75 [12] = assay: as above
Protocol: as §2

T98 = assay: as above
Protocol: as §2

U118 [13] = assay: as above
Protocol: as §2

U251 [14] = assay: as above
Protocol: as §2

U87 [15] = assay: as above
Protocol: as §2

AM-38 [16] = assay: Bliss synergy score (Combenefit); higher = more synergy; extreme values may be limits of the assay
Protocol: as §1

KNS-42 [17] = assay: as above
Protocol: as §1

SF268 [18] = assay: as above
Protocol: as §1

SF539 [19] = assay: as above
Protocol: as §1

SNB75 [20] = assay: as above
Protocol: as §1

T98G [21] = assay: as above
Protocol: as §1

U118 [22] = assay: as above
Protocol: as §1

U251 [23] = assay: as above
Protocol: as §1

U87 [24] = assay: as above
Protocol: as §1

AM-38 [25] = assay: Loewe synergy score (Combenefit); higher = more synergy; extreme values may be limits of the assay
Protocol: as §1

KNS-42 [26] = assay: as above
Protocol: as §1

SF268 [27] = assay: as above
Protocol: as §1

SF539 [28] = assay: as above
Protocol: as §1

SNB75 [29] = assay: as above
Protocol: as §1

T98G [30] = assay: as above
Protocol: as §1

U118 [31] = assay: as above
Protocol: as §1

U251 [32] = assay: as above
Protocol: as §1

U87 [33] = assay: as above
Protocol: as §1

Row | SMILES | HSA synergy score (AM-38 [1]) | HSA synergy score (KNS-42 [2]) | HSA synergy score (SF268 [3]) | HSA synergy score (SF539 [4]) | HSA synergy score (SNB75 [5]) | HSA synergy score (T98G [6]) | HSA synergy score (U118 [7]) | HSA synergy score (U251 [8]) | HSA synergy score (U87 [9]) | Chou-Talalay combination index (AM38) | Chou-Talalay combination index (KNS42) | Chou-Talalay combination index (SF268 [10]) | Chou-Talalay combination index (SF539 [11]) | Chou-Talalay combination index (SNB75 [12]) | Chou-Talalay combination index (T98) | Chou-Talalay combination index (U118 [13]) | Chou-Talalay combination index (U251 [14]) | Chou-Talalay combination index (U87 [15]) | Bliss synergy score (AM-38 [16]) | Bliss synergy score (KNS-42 [17]) | Bliss synergy score (SF268 [18]) | Bliss synergy score (SF539 [19]) | Bliss synergy score (SNB75 [20]) | Bliss synergy score (T98G [21]) | Bliss synergy score (U118 [22]) | Bliss synergy score (U251 [23]) | Bliss synergy score (U87 [24]) | Loewe synergy score (AM-38 [25]) | Loewe synergy score (KNS-42 [26]) | Loewe synergy score (SF268 [27]) | Loewe synergy score (SF539 [28]) | Loewe synergy score (SNB75 [29]) | Loewe synergy score (T98G [30]) | Loewe synergy score (U118 [31]) | Loewe synergy score (U251 [32]) | Loewe synergy score (U87 [33])
1 | Nc1ccn([C@@H]2O[C@H](CO)[C@@H](O)C2(F)F)c(=O)n1 [Gemcitabine] + C[C@@H](Oc1cc(-c2cnn(C3CCNCC3)c2)cnc1N)c1c(Cl)ccc(F)c1Cl [Crizotinib] | 3.33 | 1.25 | 1.93 | 2.44 | 7.67 | 0 | 0.488 | 7.75 | 0.0446 | 0.719 | 0.783 | 0.954 | 0.801 | 0.899 | 1.03 | 0.987 | 0.752 | 1.25 | 0.116 | 0 | 0.175 | 0.0351 | 4.81 | 0 | 0.063 | 0.679 | 0 | 3.12 | 0.0765 | 0.179 | 0 | 5.91 | 0 | 0.443 | 2.98 | 0.0421
2 | Nc1ccn([C@@H]2O[C@H](CO)[C@@H](O)C2(F)F)c(=O)n1 [Gemcitabine] + Cc1cc([C@@H](C)Nc2ccccc2C(=O)O)c2nc(N3CCOCC3)cc(=O)n2c1 [AZD6482] | 4.54 | 5.37 | 7.02 | 10.4 | 4.1 | 10.5 | 10.3 | 1.85 | 0 | 0.967 | 0.868 | 0.783 | 0.738 | 0.607 | 0.889 | 0.887 | 0.758 | 1.15 | 0.237 | 2.32 | 0.693 | 0.274 | 0 | 3.93 | 1.86 | 1.85 | 0 | 3.23 | 5.37 | 1.75 | 2.33 | 3.53 | 5.66 | 2.14 | 1.85 | 0
3 | C=CCc1cccc(/C=N/NC(=O)CN2CCN(Cc3ccccc3)CC2)c1O [PAC-1] + CCOc1nc(NC(=O)Cc2cc(OC)ccc2OC)cc(N)c1C#N [JNK inhibitor VIII] | 3.74 | 11.2 | 5.39 | 7.4 | 6.97 | 3.49 | 2.56 | 3.65 | 5.02 | 0.965 | 0.944 | 0.951 | 0.58 | 0.91 | 0.982 | 0.622 | 0.85 | 0.794 | 0 | 0 | 1.09 | 3.99 | 0.0865 | 0 | 0.51 | 2.01 | 0.501 | 0.484 | 7.1 | 0.606 | 2.49 | 5.04 | 1.34 | 2.38 | 0.13 | 4.97
4 | C=CCc1cccc(/C=N/NC(=O)CN2CCN(Cc3ccccc3)CC2)c1O [PAC-1] + Cc1cc([C@@H](C)Nc2ccccc2C(=O)O)c2nc(N3CCOCC3)cc(=O)n2c1 [AZD6482] | 10.7 | 2.36 | 4.9 | 0.0112 | 21.4 | 11.9 | 4.06 | 1.75 | 2.96 | 0.845 | 0.882 | 0.979 | 1.01 | 0.976 | 0.865 | 0.962 | 0.847 | 0.635 | 8.49 | 2.36 | 0.355 | 0 | 10.9 | 5.94 | 0.918 | 1.75 | 2.96 | 10.2 | 2.36 | 0.594 | 0.0112 | 14.6 | 10.2 | 1.77 | 1.75 | 2.96
5 | CO[C@H]1C[C@@H]2CC[C@@H](C)[C@@](O)(O2)C(=O)C(=O)N2CCCC[C@H]2C(=O)O[C@H]([C@H](C)C[C@@H]2CC[C@@H](O)[C@H](OC)C2)CC(=O)[C@H](C)/C=C(\C)[C@@H](O)[C@@H](OC)C(=O)[C@H](C)C[C@H](C)/C=C/C=C/C=C/1C [Rapamycin] + C=CCc1cccc(/C=N/NC(=O)CN2CCN(Cc3ccccc3)CC2)c1O [PAC-1] | 0.274 | 14.1 | 5.88 | 4.8 | 8.87 | 1.1 | 4.75 | 0.552 | 0.71 | 1.24 | 0.607 | 0.962 | 0.975 | 0.925 | 1.13 | 1.03 | 0.927 | 1.01 | 0 | 5.47 | 0 | 0.0748 | 0.0756 | 0 | 0 | 0.334 | 0 | 0.274 | 13.7 | 5.45 | 3.72 | 7.67 | 0 | 3.97 | 0.233 | 0
6 | CO[C@H]1C[C@@H]2CC[C@@H](C)[C@@](O)(O2)C(=O)C(=O)N2CCCC[C@H]2C(=O)O[C@H]([C@H](C)C[C@@H]2CC[C@@H](O)[C@H](OC)C2)CC(=O)[C@H](C)/C=C(\C)[C@@H](O)[C@@H](OC)C(=O)[C@H](C)C[C@H](C)/C=C/C=C/C=C/1C [Rapamycin] + CCOc1nc(NC(=O)Cc2cc(OC)ccc2OC)cc(N)c1C#N [JNK inhibitor VIII] | 3.73 | 6.4 | 0.46 | 0.625 | 19.9 | 0.183 | 2.12 | 8.47 | 5.37 | 0.906 | 0.843 | 1.09 | 1.09 | 0.706 | 0.917 | 1.1 | 0.74 | 0.776 | 0 | 1.98 | 0 | 0 | 0.0362 | 0.183 | 0 | 6.55 | 4.63 | 3.73 | 6.4 | 0.192 | 0.362 | 16.7 | 0.183 | 1.75 | 5.59 | 0.748
7 | CO[C@H]1C[C@@H]2CC[C@@H](C)[C@@](O)(O2)C(=O)C(=O)N2CCCC[C@H]2C(=O)O[C@H]([C@H](C)C[C@@H]2CC[C@@H](O)[C@H](OC)C2)CC(=O)[C@H](C)/C=C(\C)[C@@H](O)[C@@H](OC)C(=O)[C@H](C)C[C@H](C)/C=C/C=C/C=C/1C [Rapamycin] + C[C@@H](Oc1cc(-c2cnn(C3CCNCC3)c2)cnc1N)c1c(Cl)ccc(F)c1Cl [Crizotinib] | 0.00484 | 19.5 | 8.72 | 3.78 | 10.4 | 0 | 5.07 | 26.2 | 19.4 | 1.07 | 0.807 | 0.928 | 0.968 | 0.943 | 1.1 | 1 | 0.715 | 0.683 | 0 | 3.73 | 0.0254 | 0 | 0.128 | 0 | 0 | 5.62 | 11.2 | 0 | 18.6 | 8.2 | 3.24 | 9.67 | 0 | 5.03 | 26 | 16.4
8 | CO[C@H]1C[C@@H]2CC[C@@H](C)[C@@](O)(O2)C(=O)C(=O)N2CCCC[C@H]2C(=O)O[C@H]([C@H](C)C[C@@H]2CC[C@@H](O)[C@H](OC)C2)CC(=O)[C@H](C)/C=C(\C)[C@@H](O)[C@@H](OC)C(=O)[C@H](C)C[C@H](C)/C=C/C=C/C=C/1C [Rapamycin] + Cc1cc([C@@H](C)Nc2ccccc2C(=O)O)c2nc(N3CCOCC3)cc(=O)n2c1 [AZD6482] | 12.4 | 2.6 | 3.85 | 6.85 | 25.2 | 14.4 | 3.28 | 1.43 | 0 | 0.643 | 0.912 | 1.02 | 1.05 | 0.75 | 0.924 | 1.16 | 0.927 | 0.974 | 1.1 | 1.42 | 0.00824 | 0 | 3.78 | 0.59 | 0 | 1.43 | 0 | 9.55 | 2.6 | 3.35 | 5.95 | 21.8 | 12 | 2.56 | 1.43 | 0
